# Active and inactive are the calls of the source. The rule behind the calls is not given here.
# Experiments:
# T-24 [1] = test: Ability to prime Heparan sulfate synthesis in T24 cells at 0.1 mM; assay type: functional, Homo sapiens
# [2] = Dissociation constant, pKa of the compound; assay type: physicochemical
# HFL1 = test: Antiproliferative activity against human fibroblast HFL1 cells; assay type: functional; conditions: read-out: ED50 (the source's name)
# T-24 [3] = test: Antiproliferative activity against human bladder carcinoma T24 cells; assay type: functional; conditions: read-out: ED50 (the source's name)
# BALB/3T3 = test: Antiproliferative activity against mouse fibroblast 3T3 A31 cells; assay type: functional; conditions: read-out: ED50 (the source's name)
# SV3T3 = test: Antiproliferative activity against virus transformed mouse fibroblast 3T3 SV40 cells; assay type: functional; conditions: read-out: ED50 (the source's name)
# T-24 [4] = test: Induction of apoptosis in T24 cells using TUNEL assay; assay type: functional, cell-based; conditions: Homo sapiens
SMILES,Activity (T-24 [1]),pKa [2],EC50 (HFL1),EC50 (T-24 [3]),EC50 (BALB/3T3),EC50 (SV3T3),Activity (T-24 [4])
Oc1cccc2c(O[C@@H]3OC[C@@H](O)[C@H](O)[C@H]3O)cccc12,29%,9.16,500 µM,470 µM,> 500 µM,> 500 µM,
Oc1ccc2cccc(O)c2c1,,,< 25 µM,< 10 µM,,,
Oc1ccc2ccccc2c1O,,,25 µM,13 µM,,,
Oc1ccc2c(O[C@@H]3OC[C@@H](O)[C@H](O)[C@H]3O)cccc2c1,13%,9.34,370 µM,125 µM,210 µM,> 500 µM,
Oc1ccc2cc(O)ccc2c1,,,< 25 µM,< 10 µM,,,
Oc1ccc2ccc(O[C@@H]3OC[C@@H](O)[C@H](O)[C@H]3O)cc2c1,37%,9.41,500 µM,500 µM,300 µM,460 µM,
Oc1cccc2ccc(O[C@@H]3OC[C@@H](O)[C@H](O)[C@H]3O)cc12,27%,9.29,330 µM,420 µM,160 µM,510 µM,
Oc1cc(O)c2ccccc2c1,,,100 µM,70 µM,,,
Oc1c(O[C@@H]2OC[C@@H](O)[C@H](O)[C@H]2O)ccc2ccccc12,22%,8.72,40 µM,160 µM,120 µM,120 µM,
Oc1ccc(O)c2ccccc12,,,1 µM,0.7 µM,,,
Oc1ccc2ccccc2c1O[C@@H]1OC[C@@H](O)[C@H](O)[C@H]1O,2%,8.63,80 µM,150 µM,10 µM,65 µM,
Oc1cc2ccccc2cc1O[C@@H]1OC[C@@H](O)[C@H](O)[C@H]1O,28%,8.76,190 µM,400 µM,25 µM,180 µM,
O[C@@H]1[C@@H](O)[C@H](Oc2ccc3ccccc3c2)OC[C@H]1O,,,,,,,inactive
Oc1cccc2c(O)cccc12,,,20 µM,< 10 µM,,,
Oc1cc(O[C@@H]2OC[C@@H](O)[C@H](O)[C@H]2O)cc2ccccc12,20%,8.66,320 µM,25 µM,410 µM,575 µM,
Oc1cc2ccccc2cc1O,,,40 µM,30 µM,,,
Oc1ccc2c(O)cccc2c1,,,70 µM,20 µM,,,
Oc1ccc2ccc(O)cc2c1,,,70 µM,30 µM,,,
Oc1cccc2cc(O[C@@H]3OC[C@@H](O)[C@H](O)[C@H]3O)ccc12,12%,9.17,500 µM,600 µM,> 500 µM,430 µM,
Oc1ccc(O[C@@H]2OC[C@@H](O)[C@H](O)[C@H]2O)c2ccccc12,12%,9.4,6 µM,1 µM,165 µM,105 µM,
Oc1cc(O[C@@H]2OC[C@@H](O)[C@H](O)[C@H]2O)c2ccccc2c1,14%,9.22,240 µM,100 µM,130 µM,275 µM,
Oc1ccc2cc(O[C@@H]3OC[C@@H](O)[C@H](O)[C@H]3O)ccc2c1,30%,9.63,500 µM,100 µM,440 µM,320 µM,Active
Oc1cccc2cccc(O[C@@H]3OC[C@@H](O)[C@H](O)[C@H]3O)c12,27%,10.1,180 µM,220 µM,185 µM,340 µM,
Oc1ccc2cccc(O[C@@H]3OC[C@@H](O)[C@H](O)[C@H]3O)c2c1,15%,9.35,370 µM,370 µM,260 µM,550 µM,
Oc1cccc2cccc(O)c12,,,20 µM,10 µM,,,
